Results as given in patent US9394293B2, “TRPV1 antagonists including dihydroxy substituent and uses thereof” (Purdue Pharma L.P., priority 2011, dated 2016).

How the values were obtained:
[1] = target: T1, human TRPV1 (Homo sapiens (Human), UniProt Q8NER1); experiment: Capsaicin-based assay, Protocol 2 (hCAP-CHO); assay type: cell-based
Method: (§1) For Protocol 2, a Chinese Hamster Ovary cell line (CHO) that has been engineered to constitutively express human recombinant TRPV1 was used (TRPV1/CHO cells). The TRPV1/CHO cell line was generated as described below.
One day prior to assay, TRPV1/CHO cells were seeded in 96-well clear-bottom black plates (20,000 cells/well) in growth media. On the day of the experiment, the cells were washed with 0.2 mL 1× Hank's Balanced Salt Solution (Life Technologies) containing 1.6 mM CaCl2 and 20 mM HEPES, pH 7.4 (“wash buffer”). Subsequently, the cells were loaded by incubation in 0.1 mL of wash buffer containing Fluo-4 at 3 μM final concentration. After 1 hour, the cells were washed twice with 0.2 mL wash buffer and resuspended in 0.1 mL wash buffer. The plates were then transferred to a Fluorescence Imaging Plate Reader (Molecular Devices). Fluorescence intensity was monitored for 15 seconds to establish a baseline. Subsequently, test compounds diluted in assay buffer (lx Hank's Balanced Salt Solution containing 1 mM CaCl2 and 20 mM HEPES, pH 7.4) containing 1% DMSO were added to the cell plate and fluorescence was monitored for 2 minutes. […] Human TRPV1 was then activated by the addition of 50 μL capsaicin (100 nM final concentration) and plates incubated for an additional 3 min. Data were collected over the entire time course and analyzed using Excel and the curve-fitting formula GraphPad Prism.
(§2) The IC50 data provided in Table 10 are shown as mean±standard error of the mean; the number of trials conducted for each assay is shown in parentheses except for only a single trial where no number of trials is shown in parentheses.

[2] = target: T1, human TRPV1; experiment: pH-based assay, Protocol 2 (hpH-CHO); assay type: cell-based; details: read-out: TRPV1 IC50 Potency, Human pH CHO (hpH-CHO)
Method: as §1
TRPV1/CHO cells were seeded in the 96-well clear-bottom black-wall plate (Nunc) at densities of 1-2×10^4 cells/well and grown in 100 μL of culture medium (alpha-MEM supplemented with 10% FBS, 20 mM HEPES, 1 mg/mL geneticin and 1% antibiotic-antimycotic mixed stock solution) for 1-2 days before the experiment.
For the first half of a 96-well plate one agonist solution was used; for the second half the other agonist solution was used. The agonist solutions were obtained by diluting sulfuric acid (1M H2SO4) with measuring buffer. The concentrations for the two agonist solutions were determined as described above in Section 2 of Protocol 2.
The sulfuric acid concentrations between the two agonist solutions differed by 0.5 mM. […] After 1:4 dilution of the agonist solutions, the final sulfuric acid concentration was 3.2 mM and 3.3 mM, respectively. The resulting pH value for the pH assay was 5.0 to 5.1.
Test compounds were dissolved in DMSO to yield 1 mM stock solutions. […] The thereby-obtained solutions were further diluted in measuring buffer (1:100) as 10× stock serial dilutions with a DMSO concentration of 1%. 10 μL of a 10× stock was added into each well of an “antagonist plate” (see step 3.3.(4) below).
Steps (1) and (2) of this Assay were the same as steps 2.2.(1) and 2.2.(2), respectively, of Protocol 2.
(3) The cells were washed twice with 150 μL of measuring buffer (mentioned in step 2.2.(3) of Protocol 2, no probenecid). The wells were subsequently refilled with 70 μL of measuring buffer.
(4) Either 10 μL of measuring buffer or 10 μL of 10× stock serial dilution of test compound (described in step 3.2. above) were applied to each well. Usually, only one test compound was tested per 96-well plate. The number of replicates per 96-well plate for a particular antagonist at a particular concentration was 2×7 since, as described for the “agonist plate,” two different sulfuric acid concentrations were used per 96-well plate and seven lanes (A-C, E-H) per 96-well plate were used (N=2×7).
(6) Fura-2 fluorescent intensity was monitored as described in step 2.2.(5) above. After 16 time points of baseline detection, 20 μL of agonist solution (measuring buffer titrated with H2SO4 to yield a pH in the range of from about 5.0 to about 5.1 when mixed 1:4 with the measuring buffer containing test compound) was added to each well (final volume 100 μL/well).
Steps (7) and (8) were as described in steps 2.2.(6) and 2.2.(7) above, respectively.
as §2

[3] = target: T1, human TRPV1; experiment: Human TRPV1 heat-based assay (hHeat-CHO); assay type: cell-based; details: hTRPV1/CHO cells, temperature ramp 25° C. to 45° C.; mean ± SEM (number of trials); read-out: TRPV1 IC50 Potency, Human Heat CHO (hHeat-CHO)
Method: Human TRPV1 Heat-Based Assay:
CHO cells stably expressing human TRPV1 (hTRPV1) were used. Functional assessment of heat-induced activation of hTRPV1 was carried out in a cell-based Ca^2+ flux assay using ABI7500 Fast Real-Time PCR System as described in Reubish et al., “Functional assessment of temperature-gated ion-channel activity using a real-time PCR machine,” www.BioTechniques.com 47(3):iii-ix (2009), which is hereby incorporated by reference. Briefly, hTRPV1/CHO cells were cultured in growth media in a tissue culture dish at 37° C. in a CO2 incubator. On the day of the assay, culture media were removed and the cells were then detached using 0.05% trypsin at 37° C. with 5% CO2, for 90 s. The detached cells were centrifuged (1000 rpm, 4 min) to remove trypsin-containing supernatant and resuspended in assay buffer (115 mM NaCl, 5.4 mM KCl, 0.8 mM MgCl2.6H2O, 1.8 mM CaCl2.2H2O, 13.8 mM D-glucose, and 20 mM HEPES). Then, the cells were loaded with 5 μM Fluo-4, a Ca^2+ reporter dye, in the presence of 2.5 mM probenecid at 37° C. with 5% CO2, for 45 min. Thereafter, the cells were washed twice with measuring buffer (assay buffer supplemented with 0.1% BSA and 3.2 mM CaCl2) then transferred to a Fast 96-well Reaction Plate (0.1 mL) (Part no. 4346907, MICROAMP, Applied Biosystems, Foster City, Calif.). The cell density was 100,000 cells/24 μL/well. A solution of the compound under test (6 μL/well) was added into each well of the 96-well plate. Thus, the reaction volume per well was 30 μL.
The plates were then placed inside an ABI7500 Fast Real-Time PCR instrument (Applied Biosystems) to read fluorescence at different temperatures using 7500 software, version 2.0.2 (Applied Biosystems). The initial temperature was set at 25° C. for 1 min. followed by a temperature ramp to 45° C. in 100 s to deliver heat to cells. [Ca^2+]i response of hTRPV1/CHO cells to heat was determined as: [fluorescence read at 45° C.−fluorescence read at 25° C.].
Compound concentration response curves and IC50 values were analyzed using GraphPad Prism 4 software (GraphPad Software, La Jolla, Calif.).
as §2

[4] = In vivo assay of body temperature increase; parameters: species or system rat; details: rats, oral, 1 mg/mL at 10 mL/kg once; greatest ΔTb versus control at 0.5, 1 or 2 hrs after administration; rectal temperature
Excerpt: Selection of rats (Crl/SD rats, 7 weeks, male) was based on rectal body temperature measured during the morning of the day of dosing as described below. In addition, to minimize spontaneous, stress-induced increases in body temperature, rats were acclimated in advance to both the rectal measurement procedure and to being handled and dosed. All lodging and testing took place in animal care laboratories with constant room temperature and humidity. The rats were free to move and ingest food and water throughout. Each rat was coded with a colored line on the tail, housed in a separate cage, and permitted the normal range of movement. Immediately before each body temperature measurement, a rat was transferred to a measurement cage. To reduce stress which could influence its body temperature, each rat was covered with towels during the measurement. A thermistor probe was then carefully inserted into the rectum of each rat and left in place until the temperature reading on the digital display had stabilized; this value was recorded.
On the day before dosing, rectal body temperature was measured at 9:00, 10:00, 11:00, 12:30, 13:30, 14:30, and 15:30 o'clock to familiarize the rats with the measurement procedure prior to administration of the test or control treatments. The rats were also dosed by oral gavage without vehicle at 12:30 o'clock to acclimate and familiarize them with the handling and dosing procedure.
On the day of dosing, only rats with rectal body temperatures within the range of from 37.0° C. to 37.7° C. were selected for study. Rectal body temperatures were measured at 9:00, 10:00, and 11:00 o'clock. […] Rectal body temperatures of the selected rats were measured again at 12:30 o'clock and any rat with a rectal body temperature of 38.0° C. or greater was also excluded from the study.
Following assignment to either a test or control group, a test compound or a control was administered to the rats. […] Rectal body temperatures were measured at the following time points: 0.5, 1, and 2 hrs after administration. […]

[5] = prepared and evaluated according to the methods described in WO2005/030766
[6] = TRPV1/CHO cells, 100 nM capsaicin, mean ± SEM (number of trials), read-out: TRPV1 IC50 Potency, Human Capsaicin CHO (hCAP-CHO)
[7] = TRPV1/CHO cells, pH 5.0-5.1, mean ± SEM (number of trials)

T1 sequence (Q8NER1 whole entry, looked up): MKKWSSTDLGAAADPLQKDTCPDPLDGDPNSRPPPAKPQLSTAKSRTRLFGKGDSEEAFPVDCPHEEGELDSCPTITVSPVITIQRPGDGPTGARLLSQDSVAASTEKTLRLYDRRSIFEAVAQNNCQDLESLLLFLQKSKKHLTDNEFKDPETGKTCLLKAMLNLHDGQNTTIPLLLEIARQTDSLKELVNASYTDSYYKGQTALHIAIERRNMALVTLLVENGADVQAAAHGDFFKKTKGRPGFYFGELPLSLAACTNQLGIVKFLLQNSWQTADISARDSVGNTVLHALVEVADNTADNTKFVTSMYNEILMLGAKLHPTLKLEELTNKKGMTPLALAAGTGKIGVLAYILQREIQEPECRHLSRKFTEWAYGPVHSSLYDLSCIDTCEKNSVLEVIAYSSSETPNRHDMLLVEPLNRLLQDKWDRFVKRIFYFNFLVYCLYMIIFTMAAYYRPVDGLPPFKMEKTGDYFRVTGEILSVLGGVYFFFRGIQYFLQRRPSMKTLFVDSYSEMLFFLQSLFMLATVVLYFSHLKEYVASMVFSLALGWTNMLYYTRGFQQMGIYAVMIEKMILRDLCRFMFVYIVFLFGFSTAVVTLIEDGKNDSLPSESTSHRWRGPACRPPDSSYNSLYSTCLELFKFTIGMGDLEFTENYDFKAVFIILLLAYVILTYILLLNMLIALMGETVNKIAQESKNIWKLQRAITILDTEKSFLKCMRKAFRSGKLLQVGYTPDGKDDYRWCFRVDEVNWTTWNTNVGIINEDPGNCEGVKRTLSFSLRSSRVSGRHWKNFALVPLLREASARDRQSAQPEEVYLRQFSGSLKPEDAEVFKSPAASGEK

| IC50 [1] | IC50 [2, 5] | IC50 [1, 6] | IC50 [2, 7] | IC50 [3] | Body Temperature Increase ΔTb [4] | SMILES |
| --- | --- | --- | --- | --- | --- | --- |
| 1140 ± 270 nM | > 25000 nM | – | – | – | – | Cc1cccnc1-c1ccc(C(=O)Nc2nc3ccc(F)cc3s2)cc1 [Compound B, reference compound] |
| – | – | 28.7 ± 6.8 nM | 18.8 ± 1.8 nM | > 10000 nM | – | O=C(Nc1nc2ccc(Cl)cc2s1)c1ccc(-c2ncc(C[C@@H](O)CO)cc2F)cc1 [Compound G156a, (R)—N-(6-chlorobenzo[d]thiazol-2-yl)-4-[5-(2,3-dihydroxypropyl)-3-fluoropyridin-2-yl]benzamide] |
| – | – | 29.6 ± 7.9 nM | 13.7 ± 0.2 nM | 879 ± 13 nM | – | Cc1ccc2nc(NC(=O)c3ccc(-c4ncc(C[C@@H](O)CO)cc4F)cc3)sc2c1 [Compound G159a, (R)-4-[5-(2,3-dihydroxypropyl)-3-fluoropyridin-2-yl]-N-(6-methylbenzo[d]thiazol-2-yl)benzamide] |
| – | – | 31.9 ± 7.6 nM | 44.3 ± 6.2 nM | 307 ± 10 nM | – | O=C(Nc1nc2ccccc2s1)c1ccc(-c2ncc(C[C@@H](O)CO)cc2F)cc1 [Compound G155a, (R)—N-(benzo[d]thiazol-2-yl)-4-[5-(2,3-dihydroxypropyl)-3-fluoropyridin-2-yl]benzamide] |
| > 25000 nM | > 25000 nM | – | – | – | – | Cc1cccnc1-c1ccc(C(=O)Nc2nc3ccc(Cl)cc3s2)cc1 [A, reference compound] |
| – | – | 219 ± 58 nM | 105 ± 14 nM | – | – | Cc1cc2nc(NC(=O)c3ccc(-c4ncc(C[C@@H](O)CO)cc4F)cc3)sc2cc1C [Compound G215a, (R)-4-[5-(2,3-dihydroxypropyl)-3-fluoropyridin-2-yl]-N-(5,6-dimethylbenzo[d]thiazol-2-yl)benzamide] |
| – | – | – | – | – | 0.9 °C | C[C@H](O)[C@@H](O)c1cnc(N2CCN(C(=O)Nc3nc4ccc(F)cc4s3)[C@H](C)C2)c(Cl)c1 [BA] |
| – | – | – | – | – | 0.5 °C | C[C@H](O)[C@@H](O)c1cnc(N2CCN(C(=O)Nc3nc4ccc(F)cc4s3)[C@@H](C)C2)c(F)c1 [BB] |
| – | – | 77 ± 29 nM | 23.1 ± 3.1 nM | 598 ± 296 nM | – | O=C(Nc1nc2ccc(F)cc2s1)c1ccc(-c2ncc(C[C@@H](O)CO)cc2F)cc1 [Compound G158a, (R)-4-[5-(2,3-dihydroxypropyl)-3-fluoropyridin-2-yl]-N-(6-fluorobenzo[d]thiazol-2-yl)benzamide] |
| – | – | 116 ± 9.6 nM | 45 ± 3.3 nM | 580 nM | – | O=C(Nc1nc2ccccc2s1)c1ccc(-c2ncc(C[C@H](O)CO)cc2F)cc1 [Compound G155b, (S)—N-(benzo[d]thiazol-2-yl)-4-[5-(2,3-dihydroxypropyl)-3-fluoropyridin-2-yl]benzamide] |
| – | – | – | – | – | 0.7 °C | C[C@H](O)[C@@H](O)c1cnc(N2CCN(C(=O)Nc3nc4ccc(F)cc4s3)[C@H](C)C2)c(F)c1 [BC] |
